Results reported in patent US20070167631A1, “Novel herbicides” (priority 2003, published 2007).

Key:
Type in all cases: in vivo
Amaranthus [1] = test: Post-emergence herbicidal action (Example B2); conditions: 250 g/ha, after about 18 days, rating scale 10=total damage, 0=no action
Description: (§1) Monocotyledonous and dicotyledonous test plants are cultivated in a greenhouse in standard soil in plastic pots and, at the 4- to 6-leaf stage, are sprayed with an aqueous suspension of the test compounds of formula I prepared from a 25% wettable powder (Example F3, b) according to WO 97/34485) or with an emulsion of the test compounds of formula I prepared from a 25% emulsifiable concentrate (Example F1, c) according to WO 97/34485), corresponding to concentrations of 125 and 250 g of active ingredient per hectare (500 litres of water per ha). The test plants are then grown on in the greenhouse under optimum conditions. After a test duration of about 18 days, the test is evaluated in accordance with a scale of eleven ratings (10=total damage, 0=no action). Ratings of from 10 to 7 (especially from 10 to 8) indicate very good to good herbicidal action.

Chenopodium = test: Post-emergence herbicidal action (Example B2); conditions: 250 g/ha, after about 18 days, rating scale 10=total damage, 0=no action
Description: as §1

Echinochloa = test: Post-emergence herbicidal action (Example B2); conditions: 250 g/ha, after about 18 days, rating scale 10=total damage, 0=no action
Description: as §1

Euphorbia = test: Post-emergence herbicidal action (Example B2); conditions: 250 g/ha, after about 18 days, rating scale 10=total damage, 0=no action
Description: as §1

Panicum = test: Post-emergence herbicidal action (Example B2); conditions: 250 g/ha, after about 18 days, rating scale 10=total damage, 0=no action
Description: as §1

Stellaria [2] = test: Post-emergence herbicidal action (Example B2); conditions: 250 g/ha, after about 18 days, rating scale 10=total damage, 0=no action
Description: as §1

Xanthium = test: Post-emergence herbicidal action (Example B2); conditions: 250 g/ha, after about 18 days, rating scale 10=total damage, 0=no action
Description: as §1

Digitaria = test: Microscreen, post-emergence herbicidal action (Example B3); conditions: 250 g/ha, evaluated after 9 or 13 days, scale of eleven ratings (10=total damage, 0=no action)
Method: (§2) Example B3 Microscreen, Post-Emergence Herbicidal Action Monocotyledonous and dicotyledonous test plants are sown in sterilised standard soil in seed trays each having 96 cells. After 8 to 9 days' cultivation under controlled conditions in a climatic chamber (cultivation at 17/23° C.; 13 hours' light; 50-60% humidity; after application at 19/24° C.), the plants are treated with an aqueous spray solution of 1000 mg/l of the active ingredient used ([…]; incl. 10% DMSO as solvent). The plants are grown on in the climatic chamber until the test is evaluated after 9 or 13 days. The test is evaluated in accordance with a scale of eleven ratings (10=total damage, 0=no action). Ratings of from 10 to 7 (especially from 10 to 8) indicate very good to good herbicidal action.

Stellaria [3] = test: as above; conditions: 250 g/ha, evaluated after 9 or 13 days, scale of eleven ratings (10=total damage, 0=no action)
Method: as §2

Amaranthus [4] = test: as above; conditions: 250 g/ha, evaluated after 9 or 13 days, scale of eleven ratings (10=total damage, 0=no action)
Method: (§3) Example B3 Microscreen, Post-Emergence Herbicidal Action Monocotyledonous and dicotyledonous test plants are sown in sterilised standard soil in seed trays each having 96 cells. […] The plants are grown on in the climatic chamber until the test is evaluated after 9 or 13 days. The test is evaluated in accordance with a scale of eleven ratings (10=total damage, 0=no action). Ratings of from 10 to 7 (especially from 10 to 8) indicate very good to good herbicidal action.

Nasturtium = test: as above; conditions: 250 g/ha, evaluated after 9 or 13 days, scale of eleven ratings (10=total damage, 0=no action)
Method: as §3

Solanum = test: as above; conditions: 250 g/ha, evaluated after 9 or 13 days, scale of eleven ratings (10=total damage, 0=no action)
Method: as §3

| Compound | Post-emergence action: Amaranthus (Amaranthus [1]) | Post-emergence action: Chenopodium (Chenopodium) | Post-emergence action: Echinochloa (Echinochloa) | Post-emergence action: Euphorbia (Euphorbia) | Post-emergence action: Panicum (Panicum) | Post-emergence action: Stellaria (Stellaria [2]) | Post-emergence action: Xanthium (Xanthium) | Digitaria, herbicidal action rating (Digitaria) | Stellaria, herbicidal action rating (Stellaria [3]) | Amaranthus, herbicidal action rating (Amaranthus [4]) | Nasturtium, herbicidal action rating (Nasturtium) | Solanum, herbicidal action rating (Solanum) |
| --- | --- | --- | --- | --- | --- | --- | --- | --- | --- | --- | --- | --- |
| COCCOc1nc(C(=O)C2=C(O)CCCC2=O)ccc1C(F)(F)F [Compound 1.003] | 9 | 10 | 8 | 6 | 8 | 10 | 9 |  |  |  |  |  |
| O=C1CCCC(O)=C1C(=O)c1ccc(C(F)(F)F)c(OC2CCOC2)n1 (stereo not drawn) [Compound 1.021] | 9 | 8 | 6 | 7 | 6 | 7 | 9 |  |  |  |  |  |
| CN(C)c1nc(C(=O)C2=C(O)CCCC2=O)ccc1C(F)(F)F [Compound 1.059] |  |  |  |  |  |  |  | 7 | 9 | 7 | 9 | 9 |
| O=C1CCCC(O)=C1C(=O)c1ccc(C(F)(F)F)c(-n2ccc(C(F)(F)F)n2)n1 [Compound 1.081] | 10 | 9 | 9 | 9 | 10 | 6 | 9 |  |  |  |  |  |
| CCC(=O)N(C)c1nc(C(=O)C2=C(O)CCCC2=O)ccc1C(F)(F)F [Compound 1.090] | 8 | 9 | 7 |  | 8 | 6 | 8 |  |  |  |  |  |
| C=C(OCC)c1nc(C(=O)C2=C(O)CCCC2=O)ccc1C(F)(F)F [Compound 1.189] |  |  |  |  |  |  |  | 7 | 8 |  | 9 | 9 |
| CC1=NOC(c2nc(C(=O)C3=C(O)CCCC3=O)ccc2C(F)(F)F)C1 (stereo not drawn) [Compound 1.203] | 8 | 9 | 8 | 7 | 9 | 7 | 8 |  |  |  |  |  |
| COCCOc1nc(C(=O)C2=C(O)C(C)(C)C(=O)C(C)(C)C2=O)ccc1C(F)(F)F [Compound 2.003] | 8 | 8 | 9 | 9 | 9 | 9 | 8 |  |  |  |  |  |
| CC1(C)C(=O)C(C(=O)c2ccc(C(F)(F)F)c(-n3ccc(C(F)(F)F)n3)n2)=C(O)C(C)(C)C1=O [Compound 2.080] | 9 | 6 | 9 | 9 | 9 | 7 | 9 |  |  |  |  |  |
| COc1nc(C(=O)C2=C(O)C(C)(C)C(=O)C(C)(C)C2=O)ccc1C(F)(F)F [Compound 2.094] | 3 | 9 | 8 | 8 | 8 | 9 | 7 |  |  |  |  |  |
| CCOc1nc(C(=O)C2=C(O)C(C)(C)C(=O)C(C)(C)C2=O)ccc1C(F)(F)F [Compound 2.095] | 9 | 8 | 9 | 9 | 9 | 5 | 9 |  |  |  |  |  |
| C=C(OCC)c1nc(C(=O)C2=C(O)C(C)(C)C(=O)C(C)(C)C2=O)ccc1C(F)(F)F [Compound 2.188] | 5 | 6 | 7 | 7 | 9 | 10 | 8 |  |  |  |  |  |
| CC1=NOC(c2nc(C(=O)C3=C(O)C(C)(C)C(=O)C(C)(C)C3=O)ccc2C(F)(F)F)C1 (stereo not drawn) [Compound 2.201] | 9 | 8 | 8 | 6 | 9 | 6 | 8 |  |  |  |  |  |
| CC1(C)C(=O)C(C(=O)c2ccc(C(F)(F)F)c(C#N)n2)=C(O)C(C)(C)C1=O [Compound 2.208] | 8 | 6 | 9 | 8 | 9 | 5 | 8 |  |  |  |  |  |
| O=C1CCC2(CC2)C(O)=C1C(=O)c1ccc(C(F)(F)F)c(N2CCOCC2)n1 [Compound 3.068] | 10 | 9 | 9 | 9 | 10 | 9 | 9 |  |  |  |  |  |
| CC1(C)CC(C)(C)C(O)=C(C(=O)c2ccc(C(F)(F)F)c(N3CCOCC3)n2)C1=O [Compound 3.075] | 2 | 9 | 7 | 7 | 5 | 8 | 8 |  |  |  |  |  |
| CC1(C)OC(C)(C)C(O)=C(C(=O)c2ccc(C(F)(F)F)c(N3CCOCC3)n2)C1=O [Compound 3.076] | 7 | 9 | 7 | 6 | 7 | 7 | 8 |  |  |  |  |  |
| N#CC1CC(=O)C(C(=O)c2ccc(C(F)(F)F)c(N3CCOCC3)n2)=C(O)C1 (stereo not drawn) [Compound 3.212] | 8 | 7 | 5 | 7 | 0 | 7 | 8 |  |  |  |  |  |
